Experimental findings from the NIST ThermoML archive (doi:10.1016/j.fluid.2013.01.027) are described below.

For the series the following is noted: 298.15 K; 101.33 kPa; Liquid; Vibrating tube method.

Numbers after ± are expanded uncertainties.

In the case of `CCCCCCCCCCCCO` [dodecan-1-ol], the mass density came out at 823.35 ± 0.24 kg/m3.
The result for `CCCCCCCCCCO` [decan-1-ol] reads 826.38 ± 0.14 kg/m3; that for `Cc1ccccc1` [toluene], 863.67 ± 0.14 kg/m3; that for `CCCCCCO` [hexan-1-ol], 814.94 ± 0.15 kg/m3.
On to `CCCCO` [butan-1-ol], for which the mass density is 805.78 ± 0.15 kg/m3.
In the case of `c1ccsc1` [thiophene], the mass density worked out at 1058.48 ± 0.28 kg/m3.
For the compound `c1ccccc1` [benzene], the mass density is 873.53 ± 0.14 kg/m3.
Regarding `CCCc1ccccc1` [propylbenzene], the mass density is recorded as 858.62 ± 0.24 kg/m3.
As to `CCCCCCCCO` [octan-1-ol], the mass density amounted to 823.27 ± 0.14 kg/m3.
In the case of `CCc1ccccc1` [ethylbenzene], the mass density came out at 862.97 ± 0.16 kg/m3.
`CCCC[N+]1(C)CCCC1.FC(F)(F)C(F)(F)[P-](F)(F)(F)(C(F)(F)C(F)(F)F)C(F)(F)C(F)(F)F`: the mass density stood at 1582.63 ± 0.76 kg/m3.
